Patent publication US20230212172A1, “ARYLACETAMIDE ANALOGS OF PIPERAZINE-[1,2,4]TRIAZOLO[4,3-B]PYRIDAZINES” (University of Vermont and State Agricultural College, priority 2020, published 2023)
Where two headings read alike, the source gives them in different places.

Assays:
cryptosporidiosis = conditions: cited from earlier work
C. parvum = test: In vitro inhibition of C. parvum development in HCT-8 cells; type: cell-based; conditions: Cryptosporidium parvum
[1] = HCT-8 cells, Table 4, read-out: EC50 for inhibition of C. parvum development in HCT-8 cells
[2] = average EC50, C. parvum in HCT-8 cells, read-out: Cp HTC-8 Avg EC50

SMILES	EC50 (C. parvum; [1]) [nM]	EC50 (C. parvum; [2]) [nM]	also measured
CC(=O)Oc1ccccc1C(=O)Nc1ncc([N+](=O)[O-])s1 [Nitazoxanide]			efficacy in cryptosporidiosis (cryptosporidiosis; AIDS patients): no more effective than placebo; efficacy in cryptosporidiosis (cryptosporidiosis; children): partial efficacy
O=C(Cc1ccc(Cl)c(F)c1)N1CCN(c2ccc3nncn3n2)CC1 [Example 2631, 2-(4-chloro-3-fluorophenyl)-1-(4-{[1,2,4]triazolo[4,3-b]pyridazin-6-yl}piperazin-1-yl)ethan-1-one]	530	530	
O=C(Cc1cc(F)cc(F)c1)N1CCN(c2ccc3nncn3n2)CC1 [Example 10485, 2-(3,5-difluorophenyl)-1-(4-{[1,2,4]triazolo[4,3-b]pyridazin-6-yl}piperazin-1-yl)ethan-1-one]	5660		
O=C(Cc1ccccc1)N1CCN(c2ccc3nncn3n2)CC1 [Example 2819, 2-phenyl-1-(4-{[1,2,4]triazolo[4,3-b]pyridazin-6-yl}piperazin-1-yl)ethan-1-one]	22000		
O=C(Cc1cc(Cl)cc(C(F)(F)F)c1)N1CCN(c2ccc3nncn3n2)CC1 [Example 10479, 2-[3-chloro-5-(trifluoromethyl)phenyl] -1-(4-{[1,2,4]triazolo[4,3-b]pyridazin-6-yl}piperazin-1-yl)ethan-1-one]	407	407	
CC1CN(c2ccc3nncn3n2)CCN1C(=O)Cc1ccc(Cl)c(Cl)c1 (stereo not shown) [Example 2752, 2-(3,4-dichlorophenyl)-1-(2-methyl-4-{[1,2,4]triazolo[4,3-b]pyridazin-6-yl}piperazin-1-yl)ethan-1-one]	7440		
O=C(Cc1c(Cl)cccc1Cl)N1CCN(c2ccc3nncn3n2)CC1 [Example 2720, 2-(2,6-dichlorophenyl)-1-(4-{[1,2,4]triazolo[4,3-b]pyridazin-6-yl}piperazin-1-yl)ethan-1-one]	> 25000		
O=C(Cc1ccc(C(F)(F)F)c(F)c1)N1CCN(c2ccc3nncn3n2)CC1 [Example 10480, 2-[3-fluoro-4-(trifluoromethyl)phenyl] -1-(4-{[1,2,4]triazolo[4,3-b]pyridazin-6-yl}piperazin-1-yl)ethan-1-one]	2000		
Cc1cc(CC(=O)N2CCN(c3ccc4nncn4n3)CC2)ccc1Cl [Example 2758, 2-(4-chloro-3-methylphenyl)-1-(4-{[1,2,4]triazolo[4,3-b]pyridazin-6-yl}piperazin-1-yl)ethan-1-one]	292	279	
Cc1nnc2ccc(N3CCN(C(=O)Cc4ccc(Cl)c(Cl)c4)CC3)nn12 [Example 2808, 2-(3,4-dichlorophenyl)-1-(4-{3-methyl-[1,2,4]triazolo[4,3-b]pyridazin-6-yl}piperazin-1-yl)ethan-1-one]	30000		
O=C(Cc1ccc(Cl)c(Cl)c1)N1CCN(c2ccc3nnc(C(F)(F)F)n3n2)CC1 [Example 2810, 2-(3,4-dichlorophenyl)-1-{4-[3-(trifluoromethyl)-[1,2,4]triazolo[4,3-b]pyridazin-6-yl]piperazin-1-yl}ethan-1-one]	29000		
Cc1ccc(CC(=O)N2CCN(c3ccc4nncn4n3)CC2)cc1F [Example 2757, 2-(3-fluoro-4-methylphenyl)-1-(4-{[1,2,4]triazolo[4,3-b]pyridazin-6-yl}piperazin-1-yl)ethan-1-one]	5560		
O=C(Cc1cc(C(F)(F)F)cc(C(F)(F)F)c1)N1CCN(c2ccc3nncn3n2)CC1 [SLU-0010495, 2-[3,5-bis(trifluoromethyl)phenyl]-1-(4-{[1,2,4]triazolo[4,3-b]pyridazin-6-yl}piperazin-1-yl)ethan-1-one]		319	
O=C(Cc1ccc(Cl)cc1)N1CCN(c2ccc3nncn3n2)CC1 [Example 2634, 2-(4-chlorophenyl)-1-(4-{[1,2,4]triazolo[4,3-b]pyridazin-6-yl}piperazin-1-yl)ethan-1-one]		880	
O=C(Cc1ccc(F)c(Br)c1)N1CCN(c2ccc3nncn3n2)CC1 [Example 10241, 2-(3-bromo-4-fluorophenyl)-1-(4-{[1,2,4]triazolo[4,3-b]pyridazin-6-yl}piperazin-1-yl)ethan-1-one]	232	232	
O=C(Cc1ccc(F)c(Cl)c1)N1CCN(c2ccc3nncn3n2)CC1 [Example 2763, 2-(3-chloro-4-fluorophenyl)-1-(4-{[1,2,4]triazolo[4,3-b]pyridazin-6-yl}piperazin-1-yl)ethan-1-one]	240	238	
O=C(Cc1ccc(C(F)(F)F)cc1)N1CCN(c2ccc3nncn3n2)CC1 [Example 10484, 1-(4-{[1,2,4]triazolo[4,3-b]pyridazin-6-yl}piperazin-1-yl)-2-[4-(trifluoromethyl)phenyl] ethan-1-one]	5450		
CC(C)(C)OC(=O)NCCCc1ccc(CC(=O)N2CCN(c3ccc4nncn4n3)CC2)cc1 [Example 10242, Tert-butyl N-(3-{4-[2-oxo-2-(4-{[1,2,4]triazolo[4,3-b]pyridazin-6-yl}piperazin-1-yl)ethyl]phenyl}propyl)carbamate]	> 50000		
COc1ccc(CC(=O)N2CCN(c3ccc4nncn4n3)CC2)cc1 [Example 2761, 2-(4-methoxyphenyl)-1-(4-{[1,2,4]triazolo[4,3-b]pyridazin-6-yl}piperazin-1-yl)ethan-1-one]	16400		
O=C(Cc1ccc(F)cc1)N1CCN(c2ccc3nncn3n2)CC1 [Example 2632, 2-(4-fluorophenyl)-1-(4-{[1,2,4]triazolo[4,3-b]pyridazin-6-yl}piperazin-1-yl)ethan-1-one]	1180		
Cc1cc(CC(=O)N2CCN(c3ccc4nncn4n3)CC2)ccc1F [Example 2759, 2-(4-fluoro-3-methylphenyl)-1-(4-{[1,2,4]triazolo[4,3-b]pyridazin-6-yl}piperazin-1-yl)ethan-1-one]	335	353	
